Read-outs that look alike come from different tables or passages of the source.
Key:
[1] = test system: lung cancer cells (line MV522); assay: Cancer cell proliferation (MV522) assay; type: cell-based
Experimental: The protocol for assessing cellular proliferation in cancer cells is similar to that used for assessments in HUVEC cells. Two thousand lung cancer cells (line MV522, acquired from American Tissue Cultural Collection) were seeded in growth media (RPMI1640 medium supplemented with 2 mM glutamine and 10% FBS). Cells are allowed to attach for 1 day prior to addition of test agents and /or vehicles. Cells are treated simultaneously with the same test agents used in the HUVEC assay. Cellular proliferation is quantified by MTT dye reduction assay 72 hours after exposure to test agents. The total length of the assay is 4 days vs. 5 for HUVEC cells because MV522 cells are not exposed to starvation medium.

[2] = test system: human umbilical vein endothelial cells (HUVEC); assay: HUVEC proliferation assay (VEGF-stimulated, MTT); type: cell-based; settings: Homo sapiens, HUVEC, Table 1
[3] = test system: VEGF dependent retinal vascular development; assay: In vivo assay of retinal vascular development in neonatal rats; design: species or system rat
Experimental: The development of the retinal vascular in rats occurs from postnatal day 1 to postnatal day 14 (P1-P14). […] To assess the ability of specific compounds to inhibit the activity of VEGF in vivo, compounds were formulated in an appropriate vehicle, usually 50% polyethylene glycol, average molecular weight 400 daltons, and 50% solution of 300 mM sucrose in deionized water. […] Six days after the intravitreal injection, the animals were sacrificed and the retinas dissected free from the remaining ocular tissue. […] The individual retinas are then flat-mount onto glass slides and examined to determine the extent of vascularization. […] The amount of vessel regression was used to assess the relative potency of the compounds after in vivo administration.
For more quantitative analysis of regression, images of ADPase-stained, flat-mounted retinas were captured with a digital camera attached to a dissecting microscope. Retinal images were then imported into an image analysis software (Image Pro Plus 4.0, Media Cybernetics, Silver Spring, MD). The software was employed to determine the percentage of the area of the retina that contained stained vessels. This value for the experimental eye was compared to that measured for the vehicle injected, contralateral eye from the same animal. The reduction in the vascular area seen in the eye that received compound as compared to the vehicle-injected eye was then expressed as the "percent regression" for that sample.

[4] = in vivo; settings: mouse, plasma, pH 2.3
[5] = test system: VEGF dependent retinal neovascularization; assay: Neonatal rat model of retinopathy of prematurity; type: in vivo; settings: Model ROP, intravitreal, vehicle PEG/water 70:30
Experimental: A second model of VEGF dependent retinal neovascularization was employed to evaluate the activities of this series of compounds. […] The animals are exposed for 24 hours to a concentration of 50% oxygen followed by 24 hours at a concentration of 10% oxygen. This alternating cycle of hyperoxia followed by hypoxia is repeated 7 times after which the animals are removed to room air (P14). Compounds are administered via intravitreal injection upon removal to room air and the animals are sacrificed 6 days later (P20). The isolated retinas are then isolated, stained mounted and analyzed as detail above in the development model. The effectiveness was also graded as is described for the development model.

[6] = target: human FGF-R1 (Homo sapiens, UniProt P11362, C488A/C584S/L457V); assay: FGF-R spectrophotometric assay; type: biochemical; settings: Table 1; compound concentration 1 µM; read-out: FGF-P* (% inhibition)
Chain of human FGF-R1 (P11362 456-766 L457V/C488A/C584S): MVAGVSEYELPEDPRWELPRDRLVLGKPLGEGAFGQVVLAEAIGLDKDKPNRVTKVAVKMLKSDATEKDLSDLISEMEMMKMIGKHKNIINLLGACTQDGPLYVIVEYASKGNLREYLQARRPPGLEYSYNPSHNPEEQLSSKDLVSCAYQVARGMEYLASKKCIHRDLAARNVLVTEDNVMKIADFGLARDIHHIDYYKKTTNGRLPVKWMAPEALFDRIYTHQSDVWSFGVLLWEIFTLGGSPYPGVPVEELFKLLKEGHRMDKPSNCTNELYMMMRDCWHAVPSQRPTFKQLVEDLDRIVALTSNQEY
Experimental: The spectrophotometric assay was carried out as described above for VEGF-R2, except for the following changes in concentration: FGF-R = 50 nM, ATP = 2 mM, and poly(E4Y1) =15 mM.

[7] = target: LCK tyrosine kinase (Homo sapiens, UniProt P06239, C224D/P223M); assay: LCK spectrophotometric assay; type: biochemical; settings: Table 1; compound concentration 1 µM; read-out: Lck-P* (% inhibition)
Chain of LCK tyrosine kinase (P06239 223-509 P223M/C224D): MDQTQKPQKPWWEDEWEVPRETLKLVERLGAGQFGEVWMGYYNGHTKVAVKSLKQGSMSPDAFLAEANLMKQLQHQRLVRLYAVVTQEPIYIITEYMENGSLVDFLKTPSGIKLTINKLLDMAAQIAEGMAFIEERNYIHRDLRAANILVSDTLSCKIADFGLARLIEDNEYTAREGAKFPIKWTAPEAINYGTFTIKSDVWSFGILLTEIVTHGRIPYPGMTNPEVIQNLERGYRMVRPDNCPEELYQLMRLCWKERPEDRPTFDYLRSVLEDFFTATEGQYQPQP
Experimental: The spectrophotometric assay was carried out as described above for VEGF-R2, except for the following changes in concentration: LCK = 60 nM, MgCl2 = 0 mM, poly(E4Y1) = 20 mM.

[8] = in vitro; type: in vitro ADME, human; settings: human liver microsomes, 5 µM test compound, 37 °C, 2 h
In short: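 HLM diluted to 5 mg/mL in 100 mM KPO4, preincubated 10 min at 37 °C with NADPH-regenerating system. Compound (5 µM final) incubated at 37 °C in triplicate, sampled at 0 and 2 h into ice-cold acetonitrile, then LC-MS analysis.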

[9] = target: unphosphorylated VEGF-R2Δ50 (Homo sapiens, UniProt P35968, DEL940-989/E990V); assay: biochemical; settings: read-out: FLVK ** (% inhibition)
Chain of unphosphorylated VEGF-R2Δ50 (P35968 with tags, fused parts or gaps DEL940-989/E990V limits assumed): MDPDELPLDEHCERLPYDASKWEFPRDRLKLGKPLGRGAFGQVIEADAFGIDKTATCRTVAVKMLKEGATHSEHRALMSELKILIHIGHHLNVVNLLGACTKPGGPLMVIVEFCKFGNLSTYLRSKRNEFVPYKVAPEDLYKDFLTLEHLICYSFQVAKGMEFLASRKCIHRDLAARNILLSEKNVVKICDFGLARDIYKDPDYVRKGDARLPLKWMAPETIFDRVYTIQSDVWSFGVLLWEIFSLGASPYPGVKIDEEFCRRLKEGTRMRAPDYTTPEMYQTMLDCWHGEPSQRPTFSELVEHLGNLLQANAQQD

[10] = MV522, Table 1, read-out: MV522 IC50
[11] = IP, 25 mg/kg, vehicle PEG400:H2O pH 2.3 30:70
[12] = PO, 50 mg/kg, vehicle PEG400:H2O pH 2.3 30:70
[13] = Model P8, intravitreal, 5 mg/ml, vehicle PEG/water 50:50
[14] = mouse, in vivo, ip, 25 mg/kg, pH 2.3
[15] = mouse, in vivo, po, 50 mg/kg, pH 2.3
[16] = PO, 50 mg/kg, vehicle PEG400:H2O pH 2.3 60:40
[17] = Model P8, intravitreal, 5 mg/ml, vehicle PEG/water 70:30
[18] = + albumin, read-out: HUVEC + albumin IC50

Structure (SMILES) | T1/2 [11] [h] | T1/2 [12] [h] | AUC ([4]; ip, 25 mg/kg) [ng·h/mL] | AUC ([4]; po, 50 mg/kg) [ng·h/mL] | % Inhibition [3, 13] [%] | inhibition at 1 µM [6] [%] | inhibition at 1 µM [7] [%] | IC50 [2, 18] [nM] | further results
COc1cc(-c2ccc3c(-c4ccc5ccccc5c4)n[nH]c3c2)ccc1O [2(a), 3-(Naphthalen-2-yl)-6-(3-methoxy-4-hydroxy-phenyl)-1H-indazole] |  |  |  |  |  |  |  |  | IC50 ([1]; MV522, read-out: MV522 IC50 (µM)): 0.58 µM
CC(C)C(=O)Nc1cccc(C(=O)c2ccc3c(/C=C/c4ccccc4)n[nH]c3c2)c1 [19(h), 6-[3-(2-methylpropionamido)benzoyl]-3-E-styryl-1H indazole] |  |  |  |  |  |  |  |  | IC50 ([2]; read-out: HUVEC IC50): 600 nM; IC50 [1, 10]: 7.9 µM
CC(=O)Nc1cccc(Sc2ccc3c(/C=C/c4ccccc4)n[nH]c3c2)c1 [20(a), 6-(3-Acetamido-phenylsulfanyl)-3-styryl-1H-indazole] |  |  |  |  |  |  |  |  | IC50 ([2]; read-out: HUVEC IC50): 200 nM; IC50 [1, 10]: 9.4 µM
CCn1nc(C)cc1C(=O)Nc1cccc(C(=O)c2ccc3c(/C=C/c4ccccn4)n[nH]c3c2)c1 [41 (a)] | 2.9 | 3.4 | 92800 | 49000 |  |  |  |  | % Inhibition ([3]; Model P8, intravitreal, 1 mg/ml, vehicle PEG/water 50:50): 4%
C/C=C/C(=O)Nc1cccc(C(=O)c2ccc3c(/C=C/c4ccccn4)n[nH]c3c2)c1 [41 (c)] |  |  |  |  |  |  |  |  | Initial Evaluation [3, 13]: ++ (two pluses being judged to be approximately 25-75 % regression); % Inhibition ([5]; 1 mg/ml): 16%; % Inhibition ([5]; 10 mg/ml): 54%; Initial Evaluation ([5]; 10 mg/ml): +++ (three pluses give to retinas with near total regression (approximately 75% or greater)); AUCleast [14]: 3397 ng·h/mL; T1/2 [14]: 1.7 h; AUCleast [15]: 3182 ng·h/mL; T1/2 [15]: 2.6 h
CC(=O)c1ccc(C(=O)Nc2cccc(C(=O)c3ccc4c(/C=C/c5ccccn5)n[nH]c4c3)c2)s1 [41 (e)] |  |  | 4900 | 302 | 8 |  |  |  | T1/2 (IP, 25 mg/kg, vehicle PEG400:H2O pH 2.3 60:40): 1.6 h; Cmin (7 hr conc.) [16]: 7 ng/mL; T1/2 [16]: 1.6 h
CC1CC1C(=O)Nc1cccc(C(=O)c2ccc3c(/C=C/c4ccccn4)n[nH]c3c2)c1 (centres unmarked) [41 (h)] | 1.2 | 0.7 | 26900 | 4680 |  |  |  |  | % Inhibition [3, 17]: 0%; Cmin (7 hr conc.) [12]: 7 ng/mL
O=C(c1cccc(NC(=O)c2ccc(Cl)s2)c1)c1ccc2c(/C=C/c3ccccn3)n[nH]c2c1 [41 (o)] |  | 1.7 |  | 14700 | 2 |  |  |  | 
Cc1cc(C(=O)Nc2cccc(C(=O)c3ccc4c(/C=C/c5ccccn5)n[nH]c4c3)c2)n(C)n1 [41 (p)] | 5.5 |  | 4150 |  | 35 |  |  |  | 
O=C(Nc1cccc(C(=O)c2ccc3c(-c4nc5cccnc5[nH]4)n[nH]c3c2)c1)c1ccccc1 [Example 42(d), 6-(3-benzamidobenzoyl)-3-(3H-imidazo[4,5-b]pyridin-2-yl)-1H-indazole] |  |  |  |  |  |  |  |  | IC50 [1, 10]: > 10 µM
O=C(Nc1cccc(Oc2ccc3c(/C=C/c4ccccn4)n[nH]c3c2)c1)c1ccccc1 [Reference Example 31(a), 6-[3-benzamidophenoxy]-3-E-[2-(Pyridin-2-yl)ethenyl]-1H-indazole] | 2.4 | 1.6 | 47500 | 40900 |  | 95 | 77 | 10 | IC50 ([2]; read-out: HUVEC IC50): 0.7 nM; % remain (HLM, 2 h) [8]: 58%; % Inhibition [3, 17]: 46%
Cc1cc(C(=O)Nc2cccc(Oc3ccc4c(/C=C/c5ccccn5)n[nH]c4c3)c2)nn1C [Reference Example 31(b), 6-[3-((1,5-Dimethyl-1H-pyrazol-3-yl)carboxamido)phenoxy]-3-E-[2-(pyridin-2-yl)ethenyl)-1H-indazole] | 1.7 | 1.0 | > 7040 | 2070 | 32 | 97 | 66 | 5.6 | 
O=C(Nc1cccc(Oc2ccc3c(/C=C/c4c[nH]cn4)n[nH]c3c2)c1)c1ccccc1 [Reference Example 32(a), 6-[3-benzamidophenoxy]-3-E-[2-(1H-imidazol-4-yl)ethenyl]-1H-indazole] |  |  | > 20600 | 4190 |  | 96 | 86 | 4.5 | IC50 ([2]; read-out: HUVEC IC50): 0.16 nM; % Inhibition ([3]; Model P9, intravitreal, 5 mg/ml, vehicle PEG/water 50:50): 20%
CCCNC(=O)c1ccccc1Sc1ccc2c(/C=C/c3ccccn3)n[nH]c2c1 [Reference Example 35(a), 6-[2-(n-Propylcarbamoyl)phenylsulfanyl]-3-E-[2-(pyridin-2-yl)ethenyl]-1H-indazole] |  |  |  |  | 4 | 59 | 12 | 2.1 | % remain (HLM, 2 h) [8]: 33%; inhibition at 0.05 µM [9]: 76%
O=C(NC1CCC1)c1ccccc1Sc1ccc2c(/C=C/c3ccccn3)n[nH]c2c1 [Reference Example 35(c), 6-[2-(Cyclobutylcarbamoyl)phenylsulfanyl]-3-E-[2-(pyridin-2-yl)ethenyl]-1H-indazole] |  |  |  |  | 0 | 42 | 11 | 6.3 | % remain (HLM, 2 h) [8]: 17%; inhibition at 0.05 µM [9]: 76%
O=C(NCC1CC1)c1ccccc1Sc1ccc2c(/C=C/c3ccccn3)n[nH]c2c1 [Reference Example 35(v), 6-[2-(Cyclopropylmethyl-carbamoyl)phenylsulfanyl]-3-E-[2-(pyridin-2-yl)ethenyl]-1H-indazole] |  |  |  |  | 20 | 59 | 11 | 22 | % remain (HLM, 2 h) [8]: 26%; inhibition at 0.05 µM [9]: 72%

Source: patent EP1614683B1, “Indazole compounds and pharmaceutical compositions for inhibiting protein kinases, and methods for their use” (priority 1999, dated 2001)
